The values below come from patent publication US20240383875A1, “Benzimidazole Pyridine Derivatives” (Hoffmann-La Roche Inc., priority 2022, published 2024).

Holding throughout (format): biochemical
For one experiment, the target named is SIK3 (Homo sapiens, UniProt Q9Y2K2). The experiment can be described thus: Enzymatic activity assay SIK3, RapidFire mass spectrometry (phosphorylation of CHK-peptide). Conditions: RapidFire MS, inhibition of SIK3; read-out: SIK3 RF IC50. The gist of the method: (§1)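 Compounds (12-point, 3-fold, generally 30 μM to 170 pM) were pre-incubated 30 min at ambient temperature with SIK1 (5 nM), SIK2 (0.5 nM) or SIK3 (1.5 nM) in HEPES pH 7.0/magnesium acetate buffer. CHK-peptide (10 μM solution) and ATP (100 μM solution) were then added for 45 min before formic acid quench.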
SIK3, sequence (Q9Y2K2 whole entry): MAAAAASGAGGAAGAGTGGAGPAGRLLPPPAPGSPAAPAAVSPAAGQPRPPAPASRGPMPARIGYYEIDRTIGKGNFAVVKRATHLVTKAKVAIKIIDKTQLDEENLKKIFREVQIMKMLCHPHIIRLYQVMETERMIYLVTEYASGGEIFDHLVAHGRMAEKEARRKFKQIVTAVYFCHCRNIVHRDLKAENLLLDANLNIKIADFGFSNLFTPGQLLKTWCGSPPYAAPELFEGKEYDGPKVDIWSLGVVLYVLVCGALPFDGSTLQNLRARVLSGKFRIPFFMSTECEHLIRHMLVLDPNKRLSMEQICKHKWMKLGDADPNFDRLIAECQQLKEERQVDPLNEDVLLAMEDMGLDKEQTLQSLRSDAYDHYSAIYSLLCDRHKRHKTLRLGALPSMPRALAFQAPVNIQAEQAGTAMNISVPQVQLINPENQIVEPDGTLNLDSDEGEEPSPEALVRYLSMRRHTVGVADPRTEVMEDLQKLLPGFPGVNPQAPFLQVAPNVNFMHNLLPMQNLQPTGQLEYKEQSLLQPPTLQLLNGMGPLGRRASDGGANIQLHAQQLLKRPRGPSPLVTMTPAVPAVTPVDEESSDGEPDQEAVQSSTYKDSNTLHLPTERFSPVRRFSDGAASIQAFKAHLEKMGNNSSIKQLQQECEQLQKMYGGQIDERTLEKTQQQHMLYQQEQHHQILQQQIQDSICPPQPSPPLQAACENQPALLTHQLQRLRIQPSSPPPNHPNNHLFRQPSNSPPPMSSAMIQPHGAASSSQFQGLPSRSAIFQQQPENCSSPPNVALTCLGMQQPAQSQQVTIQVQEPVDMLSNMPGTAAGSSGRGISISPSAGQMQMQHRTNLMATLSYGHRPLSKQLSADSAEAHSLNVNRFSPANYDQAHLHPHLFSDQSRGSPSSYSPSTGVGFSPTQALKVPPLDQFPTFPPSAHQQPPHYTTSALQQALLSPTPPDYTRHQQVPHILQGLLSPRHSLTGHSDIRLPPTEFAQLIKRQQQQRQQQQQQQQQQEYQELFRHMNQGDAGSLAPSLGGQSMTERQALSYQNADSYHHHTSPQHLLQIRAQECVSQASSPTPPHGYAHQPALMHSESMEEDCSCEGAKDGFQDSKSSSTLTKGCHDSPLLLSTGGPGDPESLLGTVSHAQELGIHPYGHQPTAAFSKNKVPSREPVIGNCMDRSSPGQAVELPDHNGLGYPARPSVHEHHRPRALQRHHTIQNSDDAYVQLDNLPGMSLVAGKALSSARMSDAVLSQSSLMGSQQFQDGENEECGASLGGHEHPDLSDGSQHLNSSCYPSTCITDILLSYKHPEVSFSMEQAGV

Another experiment deals with SIK2 (Homo sapiens, UniProt Q9H0K1). The experiment can be described thus: Enzymatic activity assay SIK2, RapidFire mass spectrometry (phosphorylation of CHK-peptide). The note with it: RapidFire MS, inhibition of SIK2; read-out: SIK2 RF IC50. In a few lines:
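SIK2 (0.5 nM) in pH 7.0 HEPES buffer with 10 mM Mg acetate phosphorylates CHK-peptide (10 μM solution) with 100 μM ATP solution, 45 min ambient, then formic acid quench.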

A further experiment concerns the target SIK1 (Homo sapiens, UniProt P57059). The experiment is described as follows: Enzymatic activity assay SIK1, RapidFire mass spectrometry (phosphorylation of CHK-peptide). Conditions: RapidFire MS, inhibition of SIK1; read-out: SIK1 RF IC50. The gist of the method: as §1

For orientation: IC50 means the concentration needed to halve the response being measured.

SIK1, sequence (P57059 whole entry): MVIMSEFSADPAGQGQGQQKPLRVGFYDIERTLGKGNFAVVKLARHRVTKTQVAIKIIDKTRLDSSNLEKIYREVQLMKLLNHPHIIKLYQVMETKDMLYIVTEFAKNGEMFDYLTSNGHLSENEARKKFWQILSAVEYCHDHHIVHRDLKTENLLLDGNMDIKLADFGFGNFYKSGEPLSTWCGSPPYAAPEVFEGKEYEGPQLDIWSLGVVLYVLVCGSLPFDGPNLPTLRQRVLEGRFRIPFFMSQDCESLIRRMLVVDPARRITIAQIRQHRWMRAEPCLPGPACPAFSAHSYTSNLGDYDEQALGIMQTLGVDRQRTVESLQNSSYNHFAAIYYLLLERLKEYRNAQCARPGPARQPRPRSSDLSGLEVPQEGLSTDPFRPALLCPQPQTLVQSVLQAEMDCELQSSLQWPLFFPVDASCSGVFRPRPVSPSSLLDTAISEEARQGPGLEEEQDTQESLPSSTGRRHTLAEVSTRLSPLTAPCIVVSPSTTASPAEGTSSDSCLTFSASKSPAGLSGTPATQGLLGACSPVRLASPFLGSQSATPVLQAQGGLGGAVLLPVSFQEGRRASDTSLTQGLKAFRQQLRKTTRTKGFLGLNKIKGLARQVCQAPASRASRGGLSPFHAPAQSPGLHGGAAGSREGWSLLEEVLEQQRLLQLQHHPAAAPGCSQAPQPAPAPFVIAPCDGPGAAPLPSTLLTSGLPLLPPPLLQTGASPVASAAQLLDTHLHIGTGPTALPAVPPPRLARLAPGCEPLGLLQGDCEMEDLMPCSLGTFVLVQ
SIK2, sequence (Q9H0K1 whole entry): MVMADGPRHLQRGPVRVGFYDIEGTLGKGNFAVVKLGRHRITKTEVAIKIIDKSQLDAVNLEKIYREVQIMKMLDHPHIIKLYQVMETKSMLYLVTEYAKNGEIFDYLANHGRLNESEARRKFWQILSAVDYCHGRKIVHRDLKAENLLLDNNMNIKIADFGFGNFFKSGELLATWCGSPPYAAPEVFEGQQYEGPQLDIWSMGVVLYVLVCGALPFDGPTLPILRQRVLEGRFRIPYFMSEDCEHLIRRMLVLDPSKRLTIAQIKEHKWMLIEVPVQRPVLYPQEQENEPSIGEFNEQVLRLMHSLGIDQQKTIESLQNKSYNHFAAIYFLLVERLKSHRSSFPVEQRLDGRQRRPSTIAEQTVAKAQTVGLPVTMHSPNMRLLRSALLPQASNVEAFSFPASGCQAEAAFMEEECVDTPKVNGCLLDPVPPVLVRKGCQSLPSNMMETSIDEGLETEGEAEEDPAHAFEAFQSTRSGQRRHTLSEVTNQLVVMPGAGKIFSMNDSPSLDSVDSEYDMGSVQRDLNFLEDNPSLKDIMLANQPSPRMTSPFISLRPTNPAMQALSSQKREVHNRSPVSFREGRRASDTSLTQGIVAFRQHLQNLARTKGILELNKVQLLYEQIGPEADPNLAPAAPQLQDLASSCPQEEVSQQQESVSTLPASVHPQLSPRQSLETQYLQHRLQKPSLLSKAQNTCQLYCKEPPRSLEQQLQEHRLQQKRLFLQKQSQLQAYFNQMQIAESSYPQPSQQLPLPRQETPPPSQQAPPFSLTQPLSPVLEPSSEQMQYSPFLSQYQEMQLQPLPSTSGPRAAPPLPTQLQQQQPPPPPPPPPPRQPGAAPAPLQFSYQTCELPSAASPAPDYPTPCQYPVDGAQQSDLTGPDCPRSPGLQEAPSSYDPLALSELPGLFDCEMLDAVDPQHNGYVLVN

Consider `Cc1ccc(Nc2ccc3c(c2)ncn3-c2ccc(C(C)O)c(-n3nc(C(F)F)cc3C(F)F)n2)nn1` (stereo not drawn) [Example 248, 1-[2-[3,5-Bis(difluoromethyl)pyrazol-1-yl]-6-[5-[(6-methylpyridazin-3-yl)amino]benzimidazol-1-yl]-3-pyridyl]ethanol], for which the figures for the IC50 on SIK3, at SIK2 and at SIK1 were 0.7 nM, 1.8 nM and 242 nM, respectively.

`Cc1ccc(Nc2ccc3c(c2)ncn3-c2ccc(C(C)O)c(-n3nc(C(F)F)cc3C#N)n2)nn1` (stereo not drawn) [Example 303, 5-(difluoromethyl)-2-[3-(1-hydroxyethyl)-6-[5-[(6-methylpyridazin-3-yl)amino]benzimidazol-1-yl]-2-pyridyl]pyrazole-3-carbonitrile]: the IC50 at SIK3 turned out to be 0.4 nM; on SIK2, 0.4 nM; on SIK1, 30 nM.

On to `Cc1cc(C(F)F)nn1-c1nc(-n2cnc3cc(F)c(Nc4ccc(Cl)nn4)cc32)ccc1C(C)O` (stereo not drawn) [Example 371, 1-[6-[6-[(6-chloropyridazin-3-yl)amino]-5-fluoro-benzimidazol-1-yl]-2-[3-(difluoromethyl)-5-methyl-pyrazol-1-yl]-3-pyridyl]ethanol], for which the IC50 on SIK3 stood at 433 nM; on SIK2 it was 84.7 nM; at SIK1, 145 nM.

For `Cc1ccc(Nc2ccc3c(c2)ncn3-c2ccc(C(C)O)c(-n3nc(OC(F)F)cc3C(F)F)n2)nn1` (stereo not drawn) [Example 404, 1-[2-[3-(difluoromethoxy)-5-(difluoromethyl)pyrazol-1-yl]-6-[5-[(6-methylpyridazin-3-yl)amino]benzimidazol-1-yl]-3-pyridyl]ethanol], the IC50 at SIK3 stood at 0.5 nM; at SIK2 it was 0.5 nM; at SIK1, 41 nM.

With `Cc1ccc(Nc2cc3ncn(-c4ccc([C@H](C)O)c(-n5nc(OC(F)F)cc5C)n4)c3cc2F)nn1` [Example 374, (1S)-1-[2-[3-(difluoromethoxy)-5-methyl-pyrazol-1-yl]-6-[6-fluoro-5-[(6-methylpyridazin-3-yl)amino]benzimidazol-1-yl]-3-pyridyl]ethanol], the figures for the IC50 on SIK3, at SIK2 and at SIK1 were 0.4 nM, 0.3 nM and 88 nM, respectively.

Turning to “1-[6-[5-[[5-(azetidin-1-yl)pyridazin-3-yl]amino]-6-fluoro-benzimidazol-1-yl]-2-[3-(difluoromethyl)-5-methyl-pyrazol-1-yl]-3-pyridyl]ethanol [Example 390]”, the IC50 on SIK3 is 16 nM; at SIK2 it was 27.2 nM; at SIK1, 5890 nM.

`Cc1cc(C#N)nn1-c1nc(-n2cnc3ccc(OC4CCN(C5COC5)CC4)cc32)ccc1C(C)O` (stereo not drawn) [Example 114, 1-[3-(1-Hydroxyethyl)-6-[6-[[1-(oxetan-3-yl)-4-piperidyl]oxy]benzimidazol-1-yl]-2-pyridyl]-5-methyl-pyrazole-3-carbonitrile]: the values for the IC50 at SIK3, on SIK2 and on SIK1 were 606 nM, 47 nM and 49 nM, respectively.

With `Cc1ccc(Nc2ccc3c(c2)ncn3-c2ccc(C(C)O)c(-c3ccncc3C)n2)nn1` (stereo not drawn) [Example 162, 1-[6-[5-[(6-Methylpyridazin-3-yl)amino]benzimidazol-1-yl]-2-(3-methyl-4-pyridyl)-3-pyridyl]ethanol], the IC50 at SIK3 stood at 46.9 nM; at SIK2, 198 nM; at SIK1, 8570 nM.

As to `Cc1ccc(Nc2ccc3c(c2)ncn3-c2ccc(C(C)O)c(-n3nc(C#N)c(C)c3C)n2)nn1` (stereo not drawn) [Example 309, 1-[3-(1-hydroxyethyl)-6-[5-[(6-methylpyridazin-3-yl)amino]benzimidazol-1-yl]-2-pyridyl]-4,5-dimethyl-pyrazole-3-carbonitrile], the results for the half-maximal inhibitory concentration (IC50) on SIK3, on SIK2 and at SIK1 were 0.4 nM, 0.3 nM and 27 nM, respectively.

On to `COc1cc(C)n(-c2nc(-n3cnc4cc(Nc5ccc(C)nn5)ccc43)ccc2CO)n1` [Example 158, [2-(3-methoxy-5-methyl-pyrazol-1-yl)-6-[5-[(6-methylpyridazin-3-yl)amino]benzimidazol-1-yl]-3-pyridyl]methanol], for which the IC50 on SIK3 was determined as 12.8 nM; at SIK2, 41.9 nM; on SIK1, 2150 nM.

`Cc1cc(C#N)nn1-c1nc(-n2cnc3ccc(-c4ccn(C)c(=O)n4)cc32)ccc1C(C)O` (stereo not drawn) [Example 336, 1-[3-(1-hydroxyethyl)-6-[6-(1-methyl-2-oxo-pyrimidin-4-yl)benzimidazol-1-yl]-2-pyridyl]-5-methyl-pyrazole-3-carbonitrile]: the values for the IC50 at SIK3, at SIK2 and at SIK1 were 139 nM, 28.6 nM and 29 nM, respectively.

With `Cc1cc(C#N)nn1-c1nc(-n2cnc3cc(N4CC[C@H]5CNC(=O)[C@H]54)ccc32)ccc1C(C)O` (stereo partly drawn) [Example 330, 1-[6-[5-[(3aS,6aS)-6-oxo-2,3,3a,4,5,6a-hexahydropyrrolo[2,3-c]pyrrol-1-yl]benzimidazol-1-yl]-3-(1-hydroxyethyl)-2-pyridyl]-5-methylpyrazole-3-carbonitrile], the IC50 is 51.3 nM at SIK3, 26 nM at SIK2 and 113 nM on SIK1.

In the case of `Cc1cc(C#N)nn1-c1nc(-n2cnc3cc(Nc4ccc(OCCN5CCS(=O)(=O)CC5)nn4)ccc32)ccc1C(C)O` (stereo not drawn) [Example 206, 1-[6-[5-[[6-[2-(1,1-Diketo-1,4-thiazinan-4-yl)ethoxy]pyridazin-3-yl]amino]benzimidazol-1-yl]-3-(1-hydroxyethyl)-2-pyridyl]-5-methyl-pyrazole-3-carbonitrile], the values for the IC50 on SIK3, at SIK2 and on SIK1 were 5.3 nM, 4.5 nM and 72 nM, respectively.

As to `Cc1nn(CC(F)(F)F)cc1-c1nc(-n2cnc3cc(NC(=O)CN4CCCCC4)ccc32)ccc1C(C)O` (stereo not drawn) [Example 358, N-[1-[5-(1-hydroxyethyl)-6-[3-methyl-1-(2,2,2-trifluoroethyl)pyrazol-4-yl]-2-pyridyl]benzimidazol-5-yl]-2-(1-piperidyl)acetamide], the values for the IC50 on SIK3, at SIK2 and at SIK1 were 8.4 nM, 2.5 nM and 51 nM, respectively.

For the molecule `CC(O)c1ccc(-n2cnc3cc(OCCN4CCOCC4)ccc32)nc1-n1ccc(C(F)(F)F)n1` (stereo not drawn) [Example 62, 1-[6-[5-(2-Morpholinoethoxy)benzimidazol-1-yl]-2-[3-(trifluoromethyl)pyrazol-1-yl]-3-pyridyl]ethanol], the IC50 at SIK3 was 176 nM; at SIK2, 189 nM; at SIK1, 1670 nM.

Regarding `Cc1cc(C(F)F)nn1-c1nc(-n2cnc3cc(Nc4cccnn4)c(F)cc32)ccc1[C@H](C)O` [Example 307, (1S)-1-[2-[3-(difluoromethyl)-5-methyl-pyrazol-1-yl]-6-[6-fluoro-5-(pyridazin-3-ylamino)benzimidazol-1-yl]-3-pyridyl]ethanol], the IC50 at SIK3 came to 2.8 nM; on SIK2 it was 7.8 nM; at SIK1, 679 nM.

On to `COc1cc2ncn(-c3ccc([C@H](C)O)c(-c4ccccc4C(N)=O)n3)c2cc1OC` [Example 35, (S)-2-(6-(5,6-Dimethoxy-1H-benzo[d]imidazol-1-yl)-3-(l-hydroxyethyl)pyridin-2-yl)benzamide], for which the IC50 came to 7470 nM at SIK3, 6080 nM at SIK2 and 13400 nM at SIK1.

`Cc1ccc(Nc2ccc3c(c2)ncn3-c2ccc(C(C)O)c(-c3c(C#N)cnn3C)n2)nn1` (stereo not drawn) [Example 76, 5-[3-(1-Hydroxyethyl)-6-[5-[(6-methylpyridazin-3-yl)amino]benzimidazol-1-yl]-2-pyridyl]-1-methyl-pyrazole-4-carbonitrile]: the IC50 worked out at 66.2 nM at SIK3, 327 nM on SIK2 and 7390 nM on SIK1.

With `Cc1cc(C(=O)N(C)C)c(Nc2ccc3c(c2)ncn3-c2ccc(C(C)O)c(-n3nc(C#N)cc3C)n2)nn1` (stereo not drawn) [Example 219, 3-[[1-[6-(3-Cyano-5-methyl-pyrazol-1-yl)-5-(1-hydroxyethyl)-2-pyridyl]benzimidazol-5-yl]amino]-N,N,6-trimethyl-pyridazine-4-carboxamide], the values for the IC50 at SIK3, at SIK2 and at SIK1 were 4.2 nM, 6.8 nM and 2200 nM, respectively.

Consider `COc1cc2c(cc1Nc1cc3c(nn1)CCOC3)ncn2-c1ccc(C(C)O)c(-n2nc(C#N)cc2C)n1` (stereo not drawn) [Example 394, 1-[6-[5-(7,8-dihydro-5~{H}-pyrano[4,3-c]pyridazin-3-ylamino)-6-methoxy-benzimidazol-1-yl]-3-(1-hydroxyethyl)-2-pyridyl]-5-methyl-pyrazole-3-carbonitrile], for which the IC50 on SIK3 stood at 0.6 nM; on SIK2, 0.3 nM; on SIK1, 13 nM.

Take `Cc1ccc(Nc2cc3ncn(-c4ccc(CO)c(-n5nc(C#N)cc5C)n4)c3cc2F)nn1` [Example 347, 1-[6-[6-fluoro-5-[(6-methylpyridazin-3-yl)amino]benzimidazol-1-yl]-3-(hydroxymethyl)-2-pyridyl]-5-methyl-pyrazole-3-carbonitrile]: the IC50 at SIK3 worked out at 3.9 nM; at SIK2 it was 6.3 nM; at SIK1 it was 1120 nM.

On to `CCc1cc(C(F)F)nn1-c1nc(-n2cnc3cc(Nc4ccc(C)nn4)ccc32)ccc1C(C)O` (stereo not drawn) [Example 370, 1-[2-[3-(difluoromethyl)-5-ethyl-pyrazol-1-yl]-6-[5-[(6-methylpyridazin-3-yl)amino]benzimidazol-1-yl]-3-pyridyl]ethanol], for which the IC50 at SIK3 was determined as 2 nM; on SIK2, 7.1 nM; on SIK1, 496 nM.
